Measurements taken from patent publication US20090233999A1, “COMPOSITIONS AND THERAPEUTIC METHODS INVOLVING ISOFLAVONES AND ANALOGUES THEREOF” (NOVOGEN RESEARCH PTY LTD, priority 1999, published 2009).

Legend:
THP-1 cell viability = type: cell-based; settings: human, THP-1 cells, read-out: reduction of viability of the THP-1 cells
Method: MTT is bioreduced by viable cells into a coloured formazan product that is soluble in DMSO. Thus the quantity of formazan product is directly proportional to the number of living cells in culture, and can be measured using a spectrophotometer at 570 nm. These compounds reduce MTT in the absence of cells, resulting in a change in substrate colour from yellow to purple. This activity is dependent on the reducing power of each compound and was measured at 5 concentrations (data not shown). The ability of compounds to reduce MTT was not related to their ability to inhibit NFkB-activity.

A10 = assay: Proliferation of rat aorta media cell line A10; type: cell-based; settings: 72 h, three days, read-out: VSMC proliferation - IC50 (μM), A10
Method: Human umbilical vein smooth muscle cells (HUVSMC), tissue explants from a neonate (HRI— passage 2), were seeded into 96 well plates at 1×10^3 cells per well, and allowed to attach for 24 hours. They were then washed twice and incubated in medium without FBS for 24-48 hours to serum-starve them. Test compounds were prepared in medium without FBS and added to the plates and incubated for one hour. Medium with FBS was added to give a final concentration of 10% and the plates incubated for 5 days until the controls were just confluent. Final analogue concentration was therefore either a series from 150 μM to 1.2 μM, or single concentrations of 10 μM. The difference in absorbance between treated cells and untreated cells was calculated using the formula, test/control*100, to obtain the percentage change caused by the test compound. As well, an IC50 for each compound was calculated.
The effect of test compounds a rat aortic smooth muscle cell line (A7r5) and another cell line from the media of rat aorta (A10) was examined. The methodology was the same as for HUVSMC, except that the cells were treated with compound for three days.

[1] = system: Dark Agouti rats (air pouch); assay: Rat air pouch assay (serum-treated zymozan); type: in vivo; settings: for Leucocytes in lavage fluid (×10^−7) / Polymorphs in tissue sections (per 100 squares): 4 h; for activity in the rat air pouch assay: in vivo
Method: Air pouches were raised on the dorsum of female Dark Agouti rats, approximately seven weeks of age. To promote the formation of a cellular membrane lining the inside of each pouch, the pouches were maintained by re-inflating on days 2 and 5 after the initial injection of air. On re-inflation, the pouch was first deflated to ensure the needle was positioned correctly, before being re-inflated with 2 mL of sterile air. Using this protocol, the pouches remained inflated until use on day 7, when they were injected with 0.5 ml of either test compound or vehicle control. After 15 min, air pouches were injected with serum-treated zymozan (500 μg). Lavage of the air pouch was performed at 4 h and leucocytes counted, after which the rats were killed, the air pouch excised and processed in formalin for histology. The sections were blinded to the person counting. Using a graticule with 100 squares and the 40× objective, the number of polymorphs were counted in the pouch lining at 10 different and non-adjacent sites. Group sizes were 5-6 rats. Data were analysed for statistical significance within each experiment and using an unpaired t test.

PPARγ = molecular target: T1, PPARγ (Homo sapiens, UniProt P37231); assay: PPARγ agonist activity, GAL4-PPARγ beta-lactamase reporter HEK293 cells; type: cell-based; settings: FIG. 11: 5 μM
T1 construct: host or cells: HEK293 (human embryonic kidney), stably transfected
T1 sequence (P37231 238-503 limits assumed): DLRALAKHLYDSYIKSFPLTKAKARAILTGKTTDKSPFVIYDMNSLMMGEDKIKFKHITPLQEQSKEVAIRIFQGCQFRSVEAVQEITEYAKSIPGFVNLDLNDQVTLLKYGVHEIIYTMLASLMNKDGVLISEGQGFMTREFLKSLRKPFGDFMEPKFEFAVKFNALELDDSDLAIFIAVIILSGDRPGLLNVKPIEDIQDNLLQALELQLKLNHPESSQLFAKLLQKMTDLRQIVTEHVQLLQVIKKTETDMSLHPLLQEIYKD
Method: Human HEK293 cells, stably transfected with the PPARγ ligand binding domain fused with the DNA binding domain of the GAL4 protein (GAL4-PPARγ fusion protein), produce beta-lactamase when incubated with PPARγ ligands. Transfected human kidney embryonic cells (Invitrogen Inc., Carlsbad, Calif.) were seeded onto matrigel in 96-well plates and allowed to attach overnight. The following day, vehicle alone (DMSO) or test compound at 1, 5 and 10 μM was added at varying concentrations to cells and incubated for 16-18 hours. Cells were then loaded with a FRET-based fluorescent substrate to assess beta-lactamase activity. Cells were protected from light, and incubated at room temperature for 2 h. Plates were read on a fluorescence plate reader with an excitation wavelength of 409 nm and emission wavelengths of 460 nm and 530 nm. Results were expressed as a ratio of these two wavelengths after the background (cell-free control wells) had been subtracted. PPARγ activity was thus determined by measuring beta-lactamase activity as assessed by a fluorescent product to substrate ratio.

eNOS = eNOS mRNA expression in HAECs (real-time PCR); type: cell-based, human; settings: 10 μM; for increase of eNOS mRNA over vehicle control (average): two more assays
Method: HAECs were grown as described above.

E-selectin = assay: TNFα-induced E-selectin expression on HAECs (ELISA); type: cell-based, human; settings: 10 μM
Method: Inhibition of TNFα-stimulated endothelial cell activation by compounds was assessed by measuring surface expression of cell adhesion molecules with an ELISA. Human arterial endothelial cells (HAECs) in growth medium (Cell Applications Inc.) were seeded into 96-well plates at a density of 10,000 cells per well. Plates were incubated overnight at 37° C. in a humidified incubator to allow for cells to become confluent. On the morning of the experiment, TNFα (10 μl, 2 ng/ml) was added to each well, which contained 100 μl of medium. Compounds were diluted in DMSO-containing medium (2.5% DMSO) to give a compound concentration of 100 and 300 μM. Compounds were added to wells so that final concentrations were 10 and 30 μM. DMSO-containing medium alone was added to zero concentration control wells. All samples were measured in quadruplicate (4 wells per treatment).
After incubation with compound for 4 hours, medium was removed and cells were probed with either non-specific IgG or specific mouse antibodies against VCAM, ICAM or E-selectin (BD Biosciences—0.1 μg in 100 μL buffered saline with 10% heat-inactivated human serum). Adhesion molecule expression was detected by addition of sheep anti-mouse antibody/horseradish peroxidase conjugate. […] Optical density was measured at 405 nm with an ELISA reader (Titertek Multiscan, Flow Laboratories).

| Structure (SMILES) | PPARγ activation (increase in beta-lactamase activity) (PPARγ) | cytotoxicity at 30 μM (THP-1 cell viability) | IC50 (A10) | Leucocytes in lavage fluid (×10^−7) ([1]; 1 mM added to air pouch) | Polymorphs in tissue sections (per 100 squares) ([1]; 1 mM added to air pouch) | activity in the rat air pouch assay [1] | increase of eNOS mRNA over vehicle control (average) (eNOS) | TNFα-induced E-selectin expression (E-selectin) | further results |
| --- | --- | --- | --- | --- | --- | --- | --- | --- | --- |
| Oc1ccc2c(c1)OCC(c1ccc(Br)cc1)=C2 [Cpd. 21, 4′-Bromo-7-hydroxyisoflav-3-ene] | – | ~10% | – | – | – | – | – | – | – |
| Cc1c(O)ccc2c1OCC(c1cccc(O)c1)=C2 [Cpd. 14, 3′,7-Dihydroxy-8-methylisoflav-3-ene] | – | – | 10 µM | – | – | – | 86% | – | expression of eNOS (eNOS; 24 hrs, HAECs): significantly increased |
| Oc1ccc(C2=Cc3ccc(O)c(Br)c3OC2)cc1 [Cpd. 20, 4′,7-Dihydroxy-8-bromoisoflav-3-ene] | some PPARγ agonist activity | – | – | – | – | – | – | inhibited | – |
| COc1ccc(C2=Cc3ccc(O)cc3OC2)cc1OC [Cpd. 18, 7-Hydroxy-3′,4′-dimethoxyisoflav-3-ene] | – | – | – | 0.51 ± 0.33 ×10^−7 | 6.3 ± 1.3 per 100 squares | active | 62% | inhibited | Leucocytes in lavage fluid (×10^−7) ([1]; 100 μM added to air pouch): 0.88 ± 0.30 ×10^−7; Polymorphs in tissue sections (per 100 squares) ([1]; 100 μM added to air pouch): 23.2 ± 10.4 per 100 squares |

Continued, in another order:

| PPARγ activation (increase in beta-lactamase activity) (PPARγ) | Structure (SMILES) | cytotoxicity at 30 μM (THP-1 cell viability) | IC50 (A10) | Leucocytes in lavage fluid (×10^−7) ([1]; 1 mM added to air pouch) | Polymorphs in tissue sections (per 100 squares) ([1]; 1 mM added to air pouch) | activity in the rat air pouch assay [1] | increase of eNOS mRNA over vehicle control (average) (eNOS) | TNFα-induced E-selectin expression (E-selectin) | further results |
| --- | --- | --- | --- | --- | --- | --- | --- | --- | --- |
| some PPARγ agonist activity | COc1cccc(C2=Cc3ccc(O)cc3OC2)c1 [Cpd. 16, 7-Hydroxy-3′-methoxyisoflav-3-ene] | ~10% | 31 µM | 0.53 ± 0.35 ×10^−7 | 14.1 ± 15.8 per 100 squares | active | – | – | – |
| some PPARγ agonist activity | COc1ccc(C2=Cc3ccc(O)c(C)c3OC2)cc1OC [Cpd. 19, 7-Hydroxy-3′,4′-dimethoxy-8-methylisoflav-3-ene] | – | – | – | – | – | – | – | – |
